Source: patent publication US7205383B2, “Peptide ligands of leukocyte integrins” (Karyon-CTT Ltd., priority 2001, dated 2007)
Bridge positions count the residues as written; N and C are the ends. Peptide text beside a SMILES is read from it.

Tests used:
[1] = system: T cells binding to Eahy926 endothelial cells (ICAM-1); assay: T cell binding to TNF-α-stimulated endothelial cell monolayer; format: cell-based; conditions: peptide 50 μM, 45 min
Experimental: In FIG. 4(B), T cells were allowed to bind to TNF-α-stimulated Eahy endothelial cell monolayers that were grown on microtiter wells. LLG-C4 or RGD-4C was included at a concentration of 50 μM. After a 45 min incubation, the unbound cells were removed by immersing the microtiter plate in a PBS solution, and the bound T cells were determined by the phosphatase assay. The data are the mean ±SD of triplicate wells.
To study T cell binding to an endothelial cell monolayer, Eahy926 endothelial cells were plated on microtiter plates at a density of 5×10^4 cells per well and grown for three days. To stimulate the production of ICAM-1, the cells were further grown for 16 h in the presence of TNF-α at a concentration of 10 ng/ml. T cells (1.5×10^5 per well) were allowed to bind to Eahy926 cells first for 30 min at 4° C., then 15 min at 37° C. The unbound T cells were removed by immersing the microtiter plate up side down in PBS. The bound cells were determined by the phosphatase assay.

[2] = system: THP-1 cells on fibrinogen; assay: THP-1 cell adhesion to fibrinogen; format: cell-based
Experimental: Following a 60 min incubation the bound cells were determined by the phosphatase assay. The results are the mean ±SD of triplicate wells and were similar in two other experiments.
In FIG. 6(B), to activate integrins, THP-1 cells were stimulated both with phorbol ester (50 nM) and the RGD-4C and C(1–8;3–9) peptides (each 2.5 μM for 1 h. After washing the cells were allowed to bind to fibrinogen-coated wells in the presence of C(1–8;3–9) or RGD-4C or both peptides at the concentrations indicated. After a 30-min incubation the bound cells were determined. The results are the mean ±SD of triplicate wells and were similar in two other experiments. At some data points the SD values are too small to be seen.
(§1) Fibrinogen, fibronectin, von Wrlnebrand factor, type IV collagen, GST fusion proteins, Fc fusion proteins or synthetic peptides were coated on microtiter wells at a concentration of 2 μg in 50 μl TBS unless otherwise indicated. A recombinant von Willebrand factor and a capturing antibody to it kindly provided by Drs. J. J. Sixma and Ph. G. de Groot (University Medical Center Utrecht, the Netherlands) were also used. To prepare polymerized peptides, glutaraldehyde was added at a final concentration of 0.25%. […] The bound cells were determined by an assay measuring cellular phosphatase activity. […] The absorbance at 405 nm was read on a microplate reader. […]

THP-1 cells [3] = assay: Transwell cell migration assay, fibrinogen-coated filters; format: cell-based; conditions: peptide 200 μM, 10% serum, 18 h
Experimental: In FIG. 6(C), Transwell filters were coated both on the upper and lower surface with fibrinogen, or left uncoated, and then saturated with BSA. TBP-1 cells (5×10^4 per filter) were plated on the upper surface of the filter in 10% serum-containing medium. The concentrations of C(1–8;3–9) and C(1–9;3–8) were 200 μM. Following a 18 hour-culture, the cells migrated underneath the filter were determined. The cells were fixed, stained, and then counted under a microscope.
The in vitro migration of THP-1 cells was studied in closely physiological conditions containing 10% serum to not interfere with adhesive properties of cells. Both the upper and lower surfaces of 8 μm pore size Transwell filters were coated with fibrinogen, LLG-C4-GST, or GST at a concentration of 40 μg/ml overnight at 4° C. Free binding sites were blocked by incubation with 5% BSA/TBS. THP-1 cells (5×10^4 in 100 μl) were plated on the upper compartment in 10% FCS-containing medium. The C(1–8;3–9) or C(1–9;3–8) peptide were included at a concentration of 200 μM. The lower compartment was filled with 750 μl of 10% FCS-containing medium. Following a culture for 18 h at 37° C. the filters were immersed in methanol for 15 min, in water for 10 s, and in 0.1% toluidine blue for 5 min. […] Cells were removed from the upper surface of the filter with a cotton swap, and cells migrated on the lower surface were counted microscopically. […]

[4] = system: αLβ2 integrin-mediated binding of Jurkat cells to ICAM-1-Fc; assay: Jurkat cell adhesion to ICAM-1-Fc; format: cell-based
Experimental: In FIG. 4(A), Jurkat cells were allowed to attach to immobilized ICAM-1-Fc in microtiter wells in the absence or presence of LLG-C4 peptides. Following a 45 min incubation, the unbound cells were removed by immersing the microtiter plate upside down on a decanter containing PBS, and the attached cells were stained with Crystal Violet.
as §1, with “0.25%. The wells were saturated with 5% BSA and then washed five times with PBS. Prior to adhesion assays, cells were treated with 50 nM 40-Phorbol 12,13-dibutyrate or with 200 μM P1 peptide (Kotovuori et al., 1999) in serum-free medium for 30 min at room temperature to activate the integrins.” for “0.25%.”

THP-1 cells [5] = assay: THP-1 cell adhesion on wells coated with synthetic peptides; format: cell-based
Experimental: In FIG. 2(C), the C(1–8;3–9) and C(1–9;3–8) peptides were coated on microtiter wells by incubating overnight at a concentration of 40 μg/ml in TBS in the absence or presence of glutaraldehyde. Free binding sites on plastic were then blocked with 5% BSA. THP-1 cells ([…]) were allowed to bind for 60 min at 37° C. […] The experiment was repeated twice.
as §1, with “0.25%. The wells were saturated with 5% BSA and then washed five times with PBS. Prior to adhesion assays, cells were treated with 50 nM 40-Phorbol 12,13-dibutyrate or with 200 μM P1 peptide (Kotovuori et al., 1999) in serum-free medium for 30 min at room temperature to activate the integrins.” for “0.25%.”

[6] = system: THP-1 cells (β2 integrins); conditions: soluble peptide
Experimental: In FIG. 2(A), phorbol ester-activated THP-1 cells were allowed to bind for 60 min to microtiter wells coated with LLG-C4-GST, GST, or albumin. EDTA was included at a 2.5 mM concentration. The bound cells were determined by the assay measuring cellular phosphatase activity. The data are the means ±SD from triplicate wells.
In FIG. 2(B), THP-1 cells were mixed with each antibody against the β1, β2, β3, αL, αM, or αX integrin subunit as indicated at a concentration of […]. An aliquot of cells was then transferred to wells coated with LLG-C4-GST and incubated for 60 min at 37° C. Following washing the bound cells were determined by the phosphatase assay. The results are the mean % adhesion ±SD of 2–4 independent experiments each done in triplicate wells.
In FIG. 3(A), TBP-1 cells were mixed in suspension with the peptide containing either the C(1–8;3–9) or C(1–9;3–8) disulfide. The final concentrations of the peptides are indicated. Cells were then incubated for 60 min at 37° C. in microtiter wells coated with LLG-C4-GST. After washing the wells, the bound cells were quantitated by the phosphatase assay. The results are the mean ±SD from triplicate wells.
In FIG. 3(B), THP-1 cell binding to LLG-C4-GST was examined in the presence of the C(1–8;3–9), CLLGC (SEQ ID NO: 4) or the CAAGC (SEQ ID NO: 5) peptide. The synthetic peptides were used at the concentrations indicated. Following a 60 min incubation the wells were washed and the bound cells were determined by the phosphatase assay.
(§2) Fibrinogen, fibronectin, von Wrlnebrand factor, type IV collagen, GST fusion proteins, Fc fusion proteins or synthetic peptides were coated on microtiter wells at a concentration of 2 μg in 50 μl TBS unless otherwise indicated. A recombinant von Willebrand factor and a capturing antibody to it kindly provided by Drs. J. J. Sixma and Ph. G. de Groot (University Medical Center Utrecht, the Netherlands) were also used. To prepare polymerized peptides, glutaraldehyde was added at a final concentration of 0.25%. The wells were saturated with 5% BSA and then washed five times with PBS. Prior to adhesion assays, cells were treated with 50 nM 40-Phorbol 12,13-dibutyrate or with 200 μM P1 peptide (Kotovuori et al., 1999) in serum-free medium for 30 min at room temperature to activate the integrins. Alternatively, cells were stimulated for 60 min at 37° C. with the phorbol ester (50 nM) and the C(1–8;3–9) and RGD-4C peptides each at a 2.5 μM concentration, after which the peptides were removed by washing with PBS/2.5 mM EDTA. Cells were incubated in the microtiter wells (100 000 cells per well) for 60 min at 37° C. in the absence or presence of competing peptides, antibodies or EDTA. Unbound cells were removed by gently washing with PBS and pressing the plate against paper towels. The bound cells were determined by an assay measuring cellular phosphatase activity. Briefly, 100 μl of 50 mM sodium acetate buffer, pH 5.0, containing 1% Triton X-100 and 6 mg/ml p-nitrophenyl phosphate was added per well and incubated for 1 h at 37° C. The reaction was stopped with 50 μl of 1 M NaOH. The absorbance at 405 nm was read on a microplate reader. Alternatively, the attached cells were stained with Crystal Violet essentially as described (Mould et al., 1995).

[7] = Water solubility of the peptides; format: physicochemical; conditions: compared with the C(1–9;3–8) peptide
[8] = system: THP-1 cells on von Willebrand factor; format: cell-based; conditions: phorbol ester-activated THP-1; read-out: IC50, inhibition of THP-1 cell binding to von Willebrand factor
Experimental: In FIG. 5(A), THP-1 cell binding to von Wirebrand factor was examined in the presence of antibodies against the β2 (7E4), αvβ3 (LM609) or αIIbβ3 (P2) integrins. Following a 60 min incubation in von Willebrand factor-coated wells, the bound cells were determined. The data are the mean ±SD of triplicate wells. The experiment was repeated three times.
(§3) In FIG. 5(B), TRP-1 cells were allowed to bind to microtiter wells coated with von Willebrand factor, type IV collagen, or fibronectin. The C(1–8;3–9) peptide was included as a competitor in the concentrations described. The bound cells were determined by the phosphatase assay. The data are the mean ±SD of triplicate wells and were similar in four other experiments.
as §2, with “Unbound cells were removed by gently washing with PBS and pressing the plate against paper towels.” left out, “Briefly, 100 μl of 50 mM sodium acetate buffer, pH 5.0, containing 1% Triton X-100 and 6 mg/ml p-nitrophenyl phosphate was added per well and incubated for 1 h at 37° C. The reaction was stopped with 50 μl of 1 M NaOH.” left out, “Alternatively, the attached cells were stained with Crystal Violet essentially as described (Mould et al., 1995).” left out

[9] = system: THP-1 cells on type IV collagen; assay: THP-1 cell adhesion on type IV collagen; format: cell-based; conditions: phorbol ester-activated THP-1; read-out: IC50, inhibition of THP-1 adhesion on type IV collagen
Experimental: as §3
as §1, with “0.25%. The wells were saturated with 5% BSA and then washed five times with PBS. Prior to adhesion assays, cells were treated with 50 nM 40-Phorbol 12,13-dibutyrate or with 200 μM P1 peptide (Kotovuori et al., 1999) in serum-free medium for 30 min at room temperature to activate the integrins.” for “0.25%.”

ACDCRGDCFCG [RGD-4C, RGD-containing peptide, ligand of several β1 and β3 integrins, reference compound]
effect on T cell binding to TNF-α-stimulated endothelial cells [1]: no effect
inhibition of THP-1 adhesion on fibrinogen after peptide pre-stimulation ([2]; cells pre-stimulated with phorbol ester (50 nM) and RGD-4C and C(1–8;3–9) each 2.5 μM, 30-min incubation): more effectively than C(1–8;3–9)

CPCFLLGCC [C(1–9;3–8), LLG-C4 conformer with disulfide bridges C1–C9 and C3–C8]
inhibition of THP-1 cell migration through fibrinogen-coated filter (THP-1 cells [3]): inhibited only partially
inhibition of Jurkat cell adhesion to ICAM-1-Fc ([4]; compared with C(1–8;3–9)): several fold less active and had hardly any effect
THP-1 cell binding to coated peptide crosslinked with glutaraldehyde (THP-1 cells [5]; peptide coated at 40 μg/ml in presence of glutaraldehyde): gave no cell binding
THP-1 cell binding to coated peptide (THP-1 cells [5]; peptide coated at 40 μg/ml, without glutaraldehyde): failed to bind
fold less active than C(1–8;3–9), THP-1 adhesion on LLG-C4-GST [6]: 20 fold
inhibition of THP-1 adhesion to fibrinogen ([2]; phorbol ester-stimulated THP-1, 60 min): no effect

CC(C)C[C@@H]1NC(=O)[C@H](CC(C)C)NC(=O)[C@H](Cc2ccccc2)NC(=O)[C@@H]2CSSC[C@@H](C(=O)O)NC(=O)[C@H](CSSC[C@H](N)C(=O)N3CCC[C@H]3C(=O)N2)NC(=O)CNC1=O [C(1–8;3–9), CPCFLLGCC] (H-CPCFLLGCC-OH; disulfide 1-8, 3-9; N-terminus and C-terminus assumed)
IC50 ([4]; ICAM-1-Fc directly coated or captured via protein A, read-out: IC50, inhibition of Jurkat cell adhesion to ICAM-1-Fc): ~80 µM
water solubility [7]: poorer water solubility
IC50 ([6]; read-out: IC50, inhibition of THP-1 cell adhesion on LLG-C4-GST, 60 min at 37° C.): 20 µM
IC50 [8]: ~20 µM
IC50 [9]: ~200 µM
